Experimental data: the supplement of paper PMC8149375

Legend:
Conditions in all cases: treatment: drug + dasatinib (fixed dose, not stated); 5 days
CAKI-1 [1] = assay: AUC of dose-response viability curve, drug + dasatinib, normalised to DMSO (arbitrary (AUC of normalised viability)); higher = less growth inhibition
Experimental: (§1)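 Primary HTS combination arm: 8 RCC cell lines treated with 8 doses (up to 10 uM) of each library drug plus a fixed dose of dasatinib (dose not stated) for 5 days; viability read by CellTiter-Glo and normalised to DMSO. GI50 was fitted with XLfit, AUC is the area under the dose-response curve, and minimum viability is the lowest fraction of DMSO viability across doses.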

ACHN [2] = assay: as above
Experimental: as §1

UO-31 [3] = assay: as above
Experimental: as §1

TK-10 [4] = assay: as above
Experimental: as §1

786-O [5] = assay: as above
Experimental: as §1

A498 [6] = assay: as above
Experimental: as §1

769-P [7] = assay: as above
Experimental: as §1

SN12C [8] = assay: as above
Experimental: as §1

CAKI-1 [9] = assay: GI50 of drug in presence of dasatinib; higher = less potent
Experimental: as §1

ACHN [10] = assay: as above
Experimental: as §1

UO-31 [11] = assay: as above
Experimental: as §1

TK-10 [12] = assay: as above
Experimental: as §1

786-O [13] = assay: as above
Experimental: as §1

A498 [14] = assay: as above
Experimental: as §1

SN12C [15] = assay: as above
Experimental: as §1

CAKI-1 [16] = assay: minimum viability across doses, drug + dasatinib, relative to DMSO (fraction); higher = less growth inhibition
Experimental: as §1

ACHN [17] = assay: as above
Experimental: as §1

UO-31 [18] = assay: as above
Experimental: as §1

TK-10 [19] = assay: as above
Experimental: as §1

786-O [20] = assay: as above
Experimental: as §1

A498 [21] = assay: as above
Experimental: as §1

769-P [22] = assay: as above
Experimental: as §1

SN12C [23] = assay: as above
Experimental: as §1

769-P [24] = assay: GI50 of drug in presence of dasatinib; higher = less potent
Experimental: as §1

Compound | AUC of dose-response viability curve (CAKI-1 [1]) | AUC of dose-response viability curve (ACHN [2]) | AUC of dose-response viability curve (UO-31 [3]) | AUC of dose-response viability curve (TK-10 [4]) | AUC of dose-response viability curve (786-O [5]) | AUC of dose-response viability curve (A498 [6]) | AUC of dose-response viability curve (769-P [7]) | AUC of dose-response viability curve (SN12C [8]) | GI50 of drug (CAKI-1 [9]) | GI50 of drug (ACHN [10]) | GI50 of drug (UO-31 [11]) | GI50 of drug (TK-10 [12]) | GI50 of drug (786-O [13]) | GI50 of drug (A498 [14]) | GI50 of drug (SN12C [15]) | minimum viability across doses (CAKI-1 [16]) | minimum viability across doses (ACHN [17]) | minimum viability across doses (UO-31 [18]) | minimum viability across doses (TK-10 [19]) | minimum viability across doses (786-O [20]) | minimum viability across doses (A498 [21]) | minimum viability across doses (769-P [22]) | minimum viability across doses (SN12C [23]) | GI50 of drug (769-P [24])
COc1cc2ncnc(Nc3ccc(F)c(Cl)c3)c2cc1OCCCN1CCOCC1 [Gefitinib (Iressa)] + Cc1nc(Nc2ncc(C(=O)Nc3c(C)cccc3Cl)s2)cc(N2CCN(CCO)CC2)n1 [dasatinib] | 2.08 | 1.56 | 2.9 | 2.22 | 2.56 | 3.49 | 1.72 | 2.49 | 1.73 µM | 0.0857 µM | 6.18 µM | 1.07 µM | > 10 µM | > 10 µM | > 10 µM | 0.169 | 0.187 | 0.3 | 0.267 | 0.56 | 0.808 | 0.177 | 0.588 | –
O=C1NC(=O)C(c2ccccc2[N+](=O)[O-])=C1Nc1ccc(O)c(Cl)c1 + Cc1nc(Nc2ncc(C(=O)Nc3c(C)cccc3Cl)s2)cc(N2CCN(CCO)CC2)n1 [dasatinib] | 2.31 | 2.02 | 3.6 | 2.42 | 1.73 | 3.1 | 2.42 | 2.5 | > 10 µM | > 10 µM | > 10 µM | > 10 µM | – | > 10 µM | > 10 µM | 0.591 | 0.506 | 0.748 | 0.646 | 0.339 | 0.789 | 0.629 | 0.67 | > 10 µM
C=CC(=O)N1CCC[C@@H](n2nc(-c3ccc(Oc4ccccc4)cc3)c3c(N)ncnc32)C1 + Cc1nc(Nc2ncc(C(=O)Nc3c(C)cccc3Cl)s2)cc(N2CCN(CCO)CC2)n1 [dasatinib] | 2.18 | 1.61 | 3.83 | 1.83 | 2 | 4.62 | 1.72 | 2.28 | 3.28 µM | 0.0814 µM | 8.83 µM | 0.264 µM | – | > 10 µM | > 10 µM | 0.19 | 0.295 | 0.194 | 0.189 | 0.435 | 0.927 | 0.124 | 0.496 | 0.212 µM
Cc1ccc(NC(=O)c2ccc(CN3CCN(C)CC3)cc2)cc1Nc1nccc(-c2cccnc2)n1 [Imatinib (Gleevec)] + Cc1nc(Nc2ncc(C(=O)Nc3c(C)cccc3Cl)s2)cc(N2CCN(CCO)CC2)n1 [dasatinib] | 2.22 | 2.06 | 3.84 | 2.45 | 1.67 | 3.24 | 2.43 | 2.55 | 8.89 µM | > 10 µM | > 10 µM | > 10 µM | – | > 10 µM | > 10 µM | 0.491 | 0.523 | 0.883 | 0.624 | 0.336 | 0.817 | 0.586 | 0.68 | > 10 µM
